Measurements from patent US20220315895A1, “METHODS OF MAKING OLIGOPOTENT AND UNIPOTENT PRECURSORS” (Transfusion Health, LLC, priority 2019, published 2022).

Legend:
Assay type in all cases: cell-based, human
[1] = test system: expanded cord blood CD34+ cells, granulocyte precursor populations; assay: Granulocyte Differentiation Culture, precursor phenotyping (Example 39)
Text: The remaining cells from duplicate flasks were pooled, and CD34+ cells were re-enriched using the CD34 MicroBead Kit—UltraPure (Miltenyi Biotec). CD34 purity was verified by flow cytometry. Enriched CD34+ cells were then placed into Granulocyte Differentiation Culture, described below.
Granulocyte Differentiation Cultures were initiated prior to culture in Compound 1.010 (Unexpanded Granulocyte Differentiation Culture), following 21 days of culture in Compound 1.010 (+Formula I-expanded Differentiation Culture), or following 21 days of culture in Control condition (Control-expanded Differentiation Culture). Purified CD34+ cells were plated at 1000 cells per well in a 48-well plate, in granulocyte differentiation medium, made by combining StemSpan SFEM and StemSpan 100X Myeloid Expansion Supplement (formulated for differentiation of granulocytes) containing SCF, TPO, G-CSF, and GM-CSF (STEMCELL). Cells were plated in 300 μl/well. Unexpanded cells were plated in triplicate; Formula I and Control-expanded cells were plated in quadruplicate. Plates were then placed in a humidified incubator at atmospheric oxygen and 5% CO2. Exact cell numbers dispensed per well were quantified with flow cytometry for later calculations.
On days 7, and 10, additional differentiation medium was prepared and cells were passaged to fresh wells.
On days 7 and 13 of Granulocyte Differentiation Culture, a portion of the culture was removed for analysis and quantification of granulocyte differentiation via flow cytometry. Cells were stained with antibodies to CD16, CD15, CD14, CD13, CD11b, and CD34. Cells were gated into granulocyte precursor populations of promyelocyte (CD34−/CD14−/CD15+/CD16-/CD13high/CD11b−), myelocyte (CD34−/CD14−/CD15+/CD16−/CD13dim/CD11b+) and “metamyelocyte+” (CD34−/CD14−/CD15+/CD11b+/CD13+/CD16+). Promyelocyte is the least mature subset, myelocytes are at an intermediate level of maturity, and “metamyelocyte+” encompasses cells at the highest levels of granulocyte maturation, including metamyelocytes and mature neutrophils. Fractional representation and total numbers of granulocyte precursor subsets were calculated. Cell numbers calculated at day 13 account for passaging.

[2] = test system: CD15+ cells derived from cord blood CD34+ cells; assay: Progenitor Differentiation and Maturation Cultures, CD15+ output (Example 42)
Text: Progenitor Differentiation Cultures were initiated following 14, 28, 42 and 64 days of CD34 expansion culture. Differentiation Sequences were created by culturing cells in a series of Differentiation Medias, for six or seven days. Differentiation Medias were made with purified cytokines: SCF, G-CSF, GM-CSF, FLT3L, IL-3, IL-6, TPO (all from R&D Systems), prepared in either StemSpan SFEM I or RPMI+10% FBS, as indicated in Table 12A and Table 12B below. Approximately 5,000-10,000 CD34+ cells were seeded into the “Day 0 media” indicated in Table 13 in 12-well plates at the beginning of the Differentiation Culture. At day two or three, a portion of cells was seeded into the subsequent media in the Sequence. If media was to be changed to a different Differentiation Media at a given day, the cells were first placed into 15 mL conical tubes and centrifuged for 5 minutes at 300×g. All supernatant was removed prior to resuspension in new media and re-plating. At days 6 or 7, as indicated in Table 13 and Table 15, a portion of cells was analyzed. […]
A number of quantities were calculated to describe the output of Differentiation Culture and the combined effects of Expansion and Differentiation Culture. These quantities and their relationships are as described in Example 41 and depicted in FIG. 68.

[3] = test system: CD34+ cells from mobilized peripheral blood; assay: Long-term expansion of HSCs, mobilized peripheral blood (Example 36); conditions: Compound 1.010 8 μM, up to 21 days, from day 1
Description: CD34+ cells from mobilized peripheral blood were purchased from STEMCELL Technologies. The blood from volunteer donors was mobilized using G-CSF. Volunteers were administered a maximum of 10 μg/kg/day of granulocyte colony-stimulating factor (G-CSF) for 3-5 days prior to collection. Primary human CD34+ cells were isolated from mobilized peripheral blood leukapheresis samples using positive immunomagnetic separation techniques.
Cryopreserved CD34+ cell samples from each source were thawed and gradually brought to room temperature. Samples were washed then placed in overnight culture in StemSpan with 100 ng/ml each of FLT3L, TPO, SCF, and TL-6.
Cultures were incubated at 3% oxygen (controlled by nitrogen) and 5% CO2.
Twenty-four hours later (day 1), cells were counted and immunophenotyped (flow cytometry on an Invitrogen Attune N×T cytometer). The media components and concentrations used for the compounds tested are described in Table 7. Culture conditions also included an antibiotic solution that includes penicillin, streptomycin, and amphotericin B to avoid contamination. Approximately 1000 cells were added to each of the cord blood and mobilized peripheral blood flasks (5 ml total volume) or wells of a 96-well plate (200 μl total volume). Approximately 2000 cells were added to each of the non-mobilized peripheral blood flasks (5 ml total volume) or wells of a 96-well plate (200 μl total volume). Exact cell numbers dispensed per condition were quantified for later calculations of fold change from day 1.
Wells were analyzed at days 7 and 10, flasks were analyzed at 14 and 21 days of incubation. Cell numbers and phenotypes were quantified with flow cytometry. At day 14, fresh conditions for flasks were prepared as on day 1, and cells were split 1:20 into the new flasks. An additional seven days later (day 21 of culture), cell numbers and phenotypes were again quantified with flow cytometry. Cell numbers calculated at day 21 account for the passaging of the cells.
Conditions in 96-well plates were prepared in quadruplicate; conditions in flasks were prepared in duplicate. On the above-indicated number of days in culture, cells from wells or flasks were collected and phenotypes were analyzed (flow cytometry on an Invitrogen Attune N×T cytometer).

[4] = +Formula I Conditions, 13 days in Granulocyte Differentiation Culture, N 4
[5] = Formula I-expanded (21 days), seven days Granulocyte Differentiation Culture

SMILES: CC(C)(C)C(=O)Nc1ccc2c(c1)C(O)c1ccccc1-2 (stereo not shown) [Compound 1.010]
- Metamyelocyte+, Mean % of CD15+ cells [1, 4]: 35.2%
- Myelocyte, Mean % of CD15+ cells [1, 4]: 36.8%
- Promyelocyte, Mean % of CD15+ cells [1, 4]: 28%
- cells remaining undifferentiated, without expression of CD15 [1, 5]: 20%
- cells still expressing CD34 [1, 5]: 1.9%
- cells with high CD16 indicative of full differentiation to neutrophils [1, 5]: No cells were detected with high CD16
- metamyelocytes (CD34−/CD14−/CD15+/CD13+/CD11b+/CD16+), of cultured cells [1, 5]: 8%
- myelocytes (CD34−/CD14−/CD15+/CD13low/CD11b+/CD16−), of cultured cells [1, 5]: 15%
- promyelocytes (CD34−/CD14−/CD15+/CD13+/CD11b−/CD16−), of cultured cells [1, 5]: 55%
- fold increase of CD15+ cell output at days six or seven of Differentiation Culture ([2]; 64 days of CD34+ expansion in +Formula I conditions, condition TT): about 43,000 fold
- CD15+ cells as percentage of total live cells ([2]; expanded in +Formula I conditions 14, 28 and 42 days, Medias A, B, C, H or T, by 6 to 7 days): > 47%
- fold expansion of CD34+ cells [3]: greater than 20 fold
- fold expansion of CD34+/CD133+ cells [3]: greater than 40 fold
- fold expansion of CD34+/CD133+/CD90+ cells [3]: greater than 60 fold
- fold expansion of CD34+/CD133+/CD90+/CD38low/− cells [3]: greater than 60 fold
- fold expansion of CD34+/CD133+/CD90+/CD45RA− cells [3]: greater than 30 fold
